The values below come from ChEMBL document CHEMBL1201862, “PubChem BioAssay data set” (2004).

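Test compounds were applied to cells in 96-well plates for 48 hours at 5 doses. GI50 is the concentration that inhibits growth by half.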 Activity calls are given as the source filed them. No stated cut-off is given here; in the data, active = GI50 up to about 1.1 µM and inactive = higher.

Some test systems named below: NCI-H522; SR; CAKI-1; NCI-H226; MCF7; EKVX; OVCAR-5; UACC-257; RXF 393; SF-295; HOP-92; COLO 205; UACC-62; HT-29; TK-10; HL-60; MOLT-4; LOX IMVI; HCT-15.
Holding throughout (test): inhibition of tumour cell growth, NCI panel, 48 h

For `COc1cc(C)cc(C(=O)OCc2ccccc2)c1C1=C(Cl)C(=O)C(Cl)=CC1=O`, the GI50 in the assay with NCI-H522 was 2.05 µM (inactive); in the assay on SR it was 4.13 µM (inactive); with CAKI-1, > 10 µM (inactive); in the assay with NCI-H226, > 10 µM (inactive); in the assay on MCF7, > 9.42 µM (inactive); with EKVX it was > 10 µM (inactive). Further, the GI50 in the assay on OVCAR-5 was > 10 µM (inactive); in the assay with UACC-257, > 9.02 µM (inactive); with RXF 393, > 10 µM (inactive); in the assay with SF-295, > 10 µM (inactive); in the assay with HOP-92 it was 3.51 µM (inactive); in the assay with COLO 205 it was > 6.14 µM (inactive). The GI50 is > 10 µM (inactive) in the assay on UACC-62; > 10 µM (inactive) in the assay with HT-29; > 10 µM (inactive) with TK-10; 1.86 µM (inactive) with HL-60; 2.42 µM (inactive) in the assay on MOLT-4; > 10 µM (inactive) with LOX IMVI. This compound also came in with a GI50 with HCT-15 of more than 10 µM.

As for `COc1cc2c(NCCCCCCO[N+](=O)[O-])ncnc2c(OC)c1OC`, the GI50 was 19.7 µM (inactive) with NCI-H522; 9.75 µM (inactive) in the assay with SR; 19.1 µM (inactive) in the assay on CAKI-1; 16 µM (inactive) in the assay on NCI-H226; 17.6 µM (inactive) with MCF7; 22.5 µM (inactive) in the assay on EKVX. The GI50 in the assay with OVCAR-5 was 30.2 µM (inactive); with UACC-257 it was 17.8 µM (inactive); with RXF 393 it was 17.9 µM (inactive); in the assay on SF-295, 21.1 µM (inactive); in the assay on HOP-92, 14.6 µM (inactive); in the assay on COLO 205, 21.4 µM (inactive). The GI50 was 18.2 µM (inactive) in the assay with UACC-62; 36.1 µM (inactive) with HT-29; 20.9 µM (inactive) with TK-10; 23.9 µM (inactive) in the assay on HL-60; 16.5 µM (inactive) with MOLT-4; 20.2 µM (inactive) in the assay on LOX IMVI. In the assay on HCT-15, this compound had a GI50 of 24 µM.

For the compound `CCOC(=O)C1=NNC(C(=O)c2ccccc2)C1c1ccccc1` (stereo not given), the GI50 in the assay on NCI-H522 was 1.15 µM (inactive); in the assay on SR, 1.81 µM (inactive); with CAKI-1 it was 1.83 µM (inactive); with NCI-H226, 18.1 µM (inactive); with MCF7 it was 1.91 µM (inactive); with EKVX it was 8.95 µM (inactive). For the same compound, the GI50 in the assay with OVCAR-5 was 6.47 µM (inactive); with UACC-257, 2.61 µM (inactive); in the assay on RXF 393, 1.7 µM (inactive); with SF-295, 16.9 µM (inactive); in the assay on HOP-92, 2.07 µM (inactive); with COLO 205, 2.05 µM (inactive). For the same compound, the GI50 in the assay with UACC-62 is 3.18 µM (inactive); in the assay on HT-29 it was 2.28 µM (inactive); in the assay on TK-10, 2.25 µM (inactive); in the assay on HL-60, 0.644 µM (active); with MOLT-4, 3.54 µM (inactive); in the assay with LOX IMVI it was 2.32 µM (inactive). The compound also gave a GI50 in the assay with HCT-15 of 2.15 µM.

With `CC1CC[C@@]2(OC1)OC1C[C@H]3[C@@H]4CC[C@H]5CC(OC6OC(CO)C(OC7OC(CO)C(O)C(O)C7O)C(O)C6O)CCC5(C)[C@H]4CCC3(C)C1[C@@H]2C` (stereo not given in full), the GI50 with NCI-H522 was 6.19 µM (inactive); in the assay on SR, 9.59 µM (inactive); with CAKI-1, 8.49 µM (inactive); in the assay with NCI-H226, 8.81 µM (inactive); in the assay with MCF7, 5.85 µM (inactive); with EKVX, 5.33 µM (inactive). Further, the GI50 in the assay with OVCAR-5 was 8.65 µM (inactive); in the assay on UACC-257, 9.64 µM (inactive); in the assay on RXF 393 it was 10.7 µM (inactive); in the assay on SF-295 it was 8.55 µM (inactive); with HOP-92, 8.57 µM (inactive); with COLO 205, 6.89 µM (inactive). The GI50 in the assay on UACC-62 was 10.1 µM (inactive); with HT-29, 7.35 µM (inactive); in the assay with TK-10 it was 9.64 µM (inactive); with HL-60 it was 8.87 µM (inactive); in the assay with MOLT-4 it was 9.14 µM (inactive); with LOX IMVI it was 4.58 µM (inactive). The GI50 in the assay on HCT-15 is 12.6 µM.

As to `O=C(O)CSc1nnc(CCCCCCCCc2nnc(SCC(=O)O)o2)o1`, the GI50 in the assay with NCI-H522, in the assay on SR, in the assay with CAKI-1, with NCI-H226, with MCF7 and in the assay with EKVX was > 100 µM (inactive) each time. In addition, the GI50 in the assay with OVCAR-5 is > 100 µM (inactive); in the assay with UACC-257, > 100 µM (inactive); in the assay with RXF 393, 38.5 µM (inactive); in the assay on SF-295, > 100 µM (inactive); with HOP-92, 79.8 µM (inactive); with COLO 205 it was > 100 µM (inactive). In addition, the GI50 in the assay with UACC-62, in the assay on HT-29, with TK-10, with HL-60, in the assay on MOLT-4 and with LOX IMVI was > 100 µM (inactive) throughout. In the assay with HCT-15, this compound had a GI50 of more than 100 µM.

With `CCOC(=O)C1C(=O)CC(O)(c2ccccc2)C(C(=O)OCC)C1c1ccc(N(C)C)cc1` (stereo not given), the GI50 in the assay on NCI-H522 was 9.71 µM (inactive); with SR it was 7.33 µM (inactive); with CAKI-1, 51.2 µM (inactive); in the assay with NCI-H226, 51.4 µM (inactive); in the assay on MCF7, 21.8 µM (inactive); with EKVX it was 40.9 µM (inactive). The GI50 in the assay on OVCAR-5 was 74.3 µM (inactive); in the assay with UACC-257 it was 63.8 µM (inactive); in the assay on RXF 393, 14.7 µM (inactive); with SF-295, 5.71 µM (inactive); in the assay with HOP-92, 19.7 µM (inactive); in the assay on COLO 205, 17.6 µM (inactive). Besides, the GI50 with UACC-62 is 33.4 µM (inactive); with HT-29 it was 15.8 µM (inactive); in the assay with TK-10, > 59.8 µM (inactive); in the assay with HL-60, 8.18 µM (inactive); in the assay with MOLT-4, 23.5 µM (inactive); in the assay on LOX IMVI, 27.5 µM (inactive). Also, the GI50 in the assay with HCT-15 is 34.7 µM.

Turning to `O=C1c2ccccc2C2CNC1(O)c1ccccc12` (stereo not given), the GI50 is > 100 µM (inactive) in the assay with NCI-H522; > 100 µM (inactive) in the assay on SR; > 100 µM (inactive) with CAKI-1; 35.1 µM (inactive) in the assay on NCI-H226; > 100 µM (inactive) in the assay with MCF7; > 100 µM (inactive) with EKVX. Further, the GI50 in the assay on OVCAR-5, in the assay on UACC-257, in the assay on RXF 393, in the assay with SF-295, in the assay with HOP-92 and in the assay with COLO 205 was > 100 µM (inactive) each time. Further, the GI50 in the assay with UACC-62, in the assay on HT-29, with TK-10, in the assay with HL-60, in the assay with MOLT-4 and with LOX IMVI was > 100 µM (inactive) each time. Besides, the GI50 in the assay on HCT-15 was more than 100 µM.

For `Cn1cc(S(=O)(=O)NC(=O)Nc2ccc(Cl)cc2)c2ccccc21`, the GI50 with NCI-H522 was 24.5 µM (inactive); in the assay with SR it was > 100 µM (inactive); in the assay on CAKI-1 it was 15.5 µM (inactive); with NCI-H226, 83.8 µM (inactive); in the assay on MCF7 it was 56 µM (inactive); with EKVX, > 100 µM (inactive). In addition, the GI50 was 46.1 µM (inactive) in the assay on OVCAR-5; > 100 µM (inactive) with UACC-257; > 100 µM (inactive) in the assay on RXF 393; 43.6 µM (inactive) in the assay with SF-295; > 100 µM (inactive) with HOP-92; 30.3 µM (inactive) in the assay on COLO 205. Also, the GI50 is 12.4 µM (inactive) in the assay on UACC-62; > 100 µM (inactive) with HT-29; 21.4 µM (inactive) in the assay with TK-10; > 100 µM (inactive) in the assay with HL-60; > 100 µM (inactive) with MOLT-4; 93.1 µM (inactive) with LOX IMVI. The compound also showed a GI50 with HCT-15 of 4.5 µM.

With `Nc1ccc2c(=O)cc(-c3cccs3)[nH]c2n1`, the GI50 with NCI-H522 was 1.36 µM (inactive); in the assay with SR it was 0.151 µM (active); with CAKI-1, 6.67 µM (inactive); in the assay on NCI-H226 it was 2.42 µM (inactive); in the assay with MCF7 it was 1.12 µM (inactive); in the assay on EKVX it was 6.5 µM (inactive). Besides, the GI50 in the assay on OVCAR-5 was 15.3 µM (inactive); in the assay on UACC-257 it was 5.9 µM (inactive); in the assay with RXF 393 it was 4.17 µM (inactive); in the assay with SF-295, 3.1 µM (inactive); with HOP-92, 9.1 µM (inactive); in the assay on COLO 205, 0.716 µM (active). Moreover, the GI50 is 2.3 µM (inactive) in the assay with UACC-62; 3.66 µM (inactive) in the assay with HT-29; 7.13 µM (inactive) in the assay with TK-10; 0.234 µM (active) in the assay on HL-60; 1.51 µM (inactive) in the assay with MOLT-4; 1.07 µM (active) in the assay with LOX IMVI. This compound also showed a GI50 with HCT-15 of 1.29 µM.

For `O=[N+]([O-])c1cc(F)ccc1S(=O)(=O)c1ccccc1`, the GI50 with NCI-H522 is 2.22 µM (inactive); in the assay on SR, > 10 µM (inactive); with CAKI-1, > 10 µM (inactive); in the assay on NCI-H226, > 10 µM (inactive); with MCF7, > 10 µM (inactive); with EKVX it was 5.14 µM (inactive). The GI50 in the assay with OVCAR-5, in the assay on UACC-257, in the assay on RXF 393, in the assay with SF-295, in the assay on HOP-92 and in the assay with COLO 205 was > 10 µM (inactive) each time. For the same compound, the GI50 in the assay on UACC-62, in the assay on HT-29, with TK-10, in the assay on HL-60, in the assay on MOLT-4 and in the assay on LOX IMVI was > 10 µM (inactive) in each case. The compound also yielded a GI50 in the assay with HCT-15 of more than 10 µM.
